Laboratory results from patent US9328104B2, “Selective androgen receptor modulators” (Pfizer Inc., priority 2012, dated 2016).

Target: T1, full length human Androgen Receptor (AR) (Homo sapiens, UniProt P10275)
T1 construct: transiently transfected in T225 cm^2 flasks with a full length human Androgen Receptor (AR) cDNA; expressed in transfected cells; host or cells: CV-1 cells (ATCC CCL-70), transiently transfected with AR cDNA in pcDNA3 and ARE-luciferase in pGL3
T1 sequence (P10275 1-920): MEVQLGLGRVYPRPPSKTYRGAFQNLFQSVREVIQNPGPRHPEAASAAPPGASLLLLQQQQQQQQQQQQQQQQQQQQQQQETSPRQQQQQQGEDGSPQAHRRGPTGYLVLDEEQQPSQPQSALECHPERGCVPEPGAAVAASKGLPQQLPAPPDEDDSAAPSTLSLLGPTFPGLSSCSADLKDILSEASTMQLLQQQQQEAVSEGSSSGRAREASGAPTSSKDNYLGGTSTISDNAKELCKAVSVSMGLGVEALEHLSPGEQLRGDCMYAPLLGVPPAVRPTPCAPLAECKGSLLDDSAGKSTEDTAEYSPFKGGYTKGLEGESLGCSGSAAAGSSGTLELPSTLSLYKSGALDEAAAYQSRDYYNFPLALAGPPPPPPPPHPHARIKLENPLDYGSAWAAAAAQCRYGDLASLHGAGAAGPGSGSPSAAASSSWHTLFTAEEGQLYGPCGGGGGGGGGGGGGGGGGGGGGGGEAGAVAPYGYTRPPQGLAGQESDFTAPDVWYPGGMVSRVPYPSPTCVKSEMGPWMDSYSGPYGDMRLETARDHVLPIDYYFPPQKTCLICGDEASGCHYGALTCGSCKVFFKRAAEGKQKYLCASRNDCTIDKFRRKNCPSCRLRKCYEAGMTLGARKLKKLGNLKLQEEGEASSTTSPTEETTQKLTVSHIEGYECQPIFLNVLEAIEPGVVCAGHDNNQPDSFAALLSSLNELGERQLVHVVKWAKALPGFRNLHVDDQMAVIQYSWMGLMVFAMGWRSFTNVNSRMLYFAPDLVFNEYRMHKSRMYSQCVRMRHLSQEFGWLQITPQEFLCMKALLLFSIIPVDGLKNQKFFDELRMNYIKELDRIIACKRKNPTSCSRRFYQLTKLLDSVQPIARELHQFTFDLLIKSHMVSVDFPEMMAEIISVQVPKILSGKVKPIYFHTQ
Assay: Androgen Receptor-Mediated Transcriptional Assay (ARE-luciferase reporter in transiently transfected CV-1 cells)
Assay type: cell-based
Description: Androgen Receptor-Mediated Transcriptional Assay Summary
CV-1 cells (American Tissue Culture Collection cat# CCL-70) were expanded in Growth Media and transiently transfected in T225 cm^2 flasks with a full length human Androgen Receptor (AR) cDNA in the pcDNA3 expression vector and a human Androgen Response Element (ARE)-luciferase cDNA in the pGL3 vector (both from Invitrogen). DNA (μg) and Lipofectamine (μl) at a ratio of 1:3 were incubated with the cells in a total volume of 55 mL Basal Media for 4 hours. Cells were harvested by trypsinization and frozen back (−150° C. cryomed) at a concentration of 4.3 million cells/mL.
On the day of the assay, frozen cells were thawed and re-suspended in Re-suspension Media and plated at 40,000 cells/well (in 100 μL volume) in 96 well white plates and were incubated for at least 4 h at 37° C., 5% CO2. After incubation, cells were treated with the compounds to be screened. 10 mM stocks of the compounds were serially diluted 1:10 in 100% DMSO followed by an additional 1:100 dilution in Assay Media. These dilution series were added to the cell plates resulting in a further 1:10 dilution and a final % DMSO of 0.1%. The vehicle control wells also contained this dilution of DMSO and the positive control wells contained […] (DHT) as an AR agonist at final concentration of 0.3 nM in 0.1% DMSO. Cells were incubated for 16-18 hours at 37° C. and 5% CO2. Then the culture media was removed from and the cells were lysed in 20 μL of cell lysis reagent for 5 minutes at room temperature. 50 μL of luciferase reagent was added to each well and luminescence, over 5 seconds, was measured.
EC50 (half maximal effective concentration) was calculated from concentration series plots which generated sigmoidal curves. Xlfit software was used to plot the best fit of the % effect vs concentration and to calculate the EC50.
Reagents and Materials used in the Androgen Receptor-Mediated Transcriptional Assay include the following: • Growth Media—DMEM/high glucose—10% FBS: 500 ml phenol red DMEM/high glucose (Gibco, Grand Island N.Y., cat #10569-010), 10% non heat-inactivated Fetal Bovine Serum (FBS) (Atlanta Biologicals, Norcross Ga., cat #S-12450), 1% Nonessential Amino Acids (Gibco, cat #11140-050), 1% Penicillin-Streptomycin (Gibco, cat #15140-122) • Basal Media—phenol red free DMEM/high glucose (Gibco, cat #31053-028)+1% Na Pyruvate (Gibco, cat #11360-070), 1% Nonessential Amino Acids (Gibco, cat #11140-050), 1% GlutaMAX-I (Gibco, cat #35050-061) • Re-suspension Media—basal media+1% Penicillin-Streptomycin (Gibco, cat #15140-122) • Assay Media—basal media+5% charcoal stripped FBS (HyClone, Logan Utah, Cat #SH30068)+1% Penicillin-Streptomycin (Gibco, cat #15140-122) • Cell Lysis Reagent—Promega, Cat #PAE1531 • Luciferase Reagent—Promega, Cat #PAE1483

## C[C@@H]1CC[C@H]([C@@H](O)C(F)(F)F)N1c1ccc2c(C#N)nccc2c1 [Compound 30, 6-{(2R,5R)-2-methyl-5-[(1R)-2,2,2-trifluoro-1-hydroxyethyl]pyrrolidin-1-yl}isoquinoline-1-carbonitrile]
  EC50: 0.1 nM
